Assay results from US20240075073A1, “TREATING OPTIC NEURITIS WITH INDUCED PLURIPOTENT STEM CELL-DERIVED OLIGODENDROCYTE PRECURSOR CELLS” (Mayo Foundation for Medical Education and Research, priority 2016, published 2024).
Entries after “also recorded” stand apart in the source; their conditions may differ.

Legend:
[1] = tested on: murine optic nerves; assay: PPD staining and electron microscopy of optic nerve sections, cuprizone demyelination and remyelination after OPC transplant; format: in vivo, mice
Protocol: (§1) Cuprizone is a copper chelator, which causes apoptosis of mature oligodendroglia, followed by microglial recruitment, and phagocytosis of myelin. Demyelination was induced by feeding mice a diet containing 0.3% cuprizone for 9 weeks. […] Peak demyelination occurred at 6-7 weeks with spontaneous remyelination occurring 2-4 weeks after transition to regular diet. Efficacy of OPC transplants upon reintroduction of regular diet was evaluated. Assessment of remyelination following transplant was performed as described elsewhere (Deb et al., PLoS One, 5:e12478 (2010)). Briefly, semi-thin sections of optic nerves were stained with para-phenylenediamine, imaged at 100× magnification following a predetermined sampling scheme, and analyzed using automated ImageJ macros to measure myelinated fibers.
For collection of optic nerves and brain tissue, mice were perfused with 4% paraformaldehyde or Trump's fixative, and CNS tissues were post-fixed in the respective solution for 24 hours.
Cuprizone is a copper chelator that causes apoptosis of mature oligodendroglia, followed by microglial recruitment and phagocytosis of myelin. Demyelination was induced by feeding mice a diet containing 0.3% cuprizone for 9 weeks. […] Peak demyelination occurs at 6-7 weeks with spontaneous remyelination occurring 2-4 weeks after transition to regular diet. […] Optical coherence tomography (OCT) provided quantitative assessment of neuroretinal integrity. The retinal layers measured along the green line in FIG. 4E in a healthy mouse (FIG. 4F). Note the clear retinal nerve fiber layer (RNFL), as outlined in FIG. 4H. The retinal layers measured along the yellow line in FIG. 4E in a healthy mouse (FIG. 4G). Note the thick ganglion cell layer (GCL), as outlined in FIG. 4H. Head mount surgery for placement of VEP electrodes and recording locations (FIG. 4I-K). Visual evoked potentials (VEPs) measured in the visual cortex induced by a 0.3 Hz light pulse (FIG. 4L). […] VEP averaging is used to establish measurements of evoked potential amplitude, latency, and pulse width (FIG. 4M). […]

[2] = tested on: murine optic nerves; conditions: mice on diet containing 0.3% cuprizone; cited from earlier work
[3] = tested on: optic nerve of cuprizone-fed mice; assay: Visual evoked potentials (VEP) in cuprizone-fed mice with or without OPC transplant; format: in vivo
Protocol: as §1
Maintaining a sterile field, 1.0 μL of media containing >10^4 OPCs were injected into the vitreous humor of anesthetized mice, using a custom 34-gauge needle mounted on a 5 μL Hamilton syringe. Despite the small dimensions of the murine eye and the high needle gauge, OPCs were consistently and reproducibly delivered into the vitreous cavity with this method, and transferred cells were imaged using fluorescent fundus imaging of the mouse eye (evidence from >30 mice; data not included) (FIG. 6A).
To measure the functional outcomes of OPC transplantation, VEPs were recorded. Intracranial supradural screw electrodes (plastics1.com 8L0X3905201F) were implanted over the visual cortex as described elsewhere (Deb et al., (2010) PLoS One 5:e12478) (FIG. 4I-4K). After dark adaptation, mice were placed in a recording chamber connected to a recording system (8200-K1-SE3, Pinnacle Technology) using an implanted EEG headmount (8235-SM, Pinnacle Tech) tethered to a preamplifier (8202-SE3, Pinnacle Tech) and an analog-to-digital converter. Mice were visually stimulated by an on-axis flashing LED. VEPs were recorded with varying stimulus blocks from 0.1 Hz to 1000 Hz (controlled via a programmable Arduino Diecimila). Recording parameters measured latency to N1 (the first negative peak following stimulation), amplitude range between Nmax-Pmax (first positive peak after stimulation), number of stimuli not followed by a response, duration of visual evoked response, pulse width of Pmax. Any delay in conduction velocity through the optic nerve increased time to N1, whereas axonal degeneration led to decrease in amplitude range, and an increase in response duration as well as increased pulse width due to non-synchronous firing of neurons, providing a very sensitive measure of optic nerve function.
Mice were subjected to electrode implantation surgery and either received OPC transplant or served as controls (FIGS. 7A-C), and visual evoked potential (VEP) averaging was used to establish measurements of evoked potential amplitude, latency, and peak pulse-width (FIG. 7D). Representative waveforms of VEP recordings in a healthy control animal (FIG. 7E), cuprizone-fed animal (FIG. 7F), and cuprizone-fed animal transplanted with OPCs (FIG. 7G). Latency was measured as the time from the visual stimulus to the first negative peak in the VEP impulse (FIG. 7H). An increased latency indicated decreased conduction velocity as a result of loss of myelin and Nodes of Ranvier. […] Peak width was measured as the duration of the first positive impulse at half-maximum amplitude. […]

[4] = 0.3 Hz stimulation frequency, cuprizone-fed animal compared to regular diet (FIG. 4N)

Structure (SMILES): O=C(NN=C1CCCCC1)C(=O)NN=C1CCCCC1 [cuprizone]
- optic nerve myelination, PPD staining of semi-thin sections ([1]; after 6 weeks of cuprizone treatment): profound demyelination
- optic nerve myelination, PPD staining of semi-thin sections ([1]; after 9 weeks of cuprizone treatment): profound demyelination
- myelin layers in electron micrographs of thin optic nerve cross sections ([1]; cuprizone-treated animals, no transplant): thinning and disorganization of myelin layers; also recorded: thinning, and disorganization of myelin layers
- time of peak demyelination [2]: 6-7 weeks
- failure to transmit impulses in VEP recording [3, 4]: increased failure to transmit impulses
- latency to N1 in VEP recording from visual cortex [3, 4]: increased latency to N1
- average latency (time from visual stimulus to first negative peak in the VEP impulse) ([3]; after cuprizone treatment for nine weeks, no transplant, healthy baseline 276 ms, n=5): 371 ms
- peak width, shortest half for peak width values ([3]; after demyelination with cuprizone, no transplant, n=5): increased
- number of missed responses ([3]; cuprizone-fed animals, no transplant, n=5): greatly increased
